Measured values from US20230212193A1, “CRYSTALLINE RET INHIBITOR” (Loxo Oncology, Inc., priority 2020, published 2023).
≈ marks a conversion by molar mass, not a printed value.

Legend:
Assay type in all cases: physicochemical
[1] = hygroscopicity comparison of polymorphs; details: anhydrous polymorphs compared
[2] = solubility in organic solvents
[3] = accelerated stability study of Form B (open dish, temperature/humidity; XRPD and HPLC); design: key to Crystal Form (XRPD vs unstressed time 0 sample): NC: No Change
From the text: Physical and chemical stability of Form B is an important attribute not only with respect to ensuring dissolution and solubility, but also for API and dosage form drug development and manufacturing operations (drying, storage, shipping transfers, etc.). Not all crystalline forms have the needed stability to enable drug development. A crystal form that is stable with respect to both temperature and humidity is desired. In order to assess the stability of the crystal form of selpercatinib an accelerated stability study iss carried out. Samples of Form B are weighed into 20 mL scintillation vials and placed (open dish) into bell jars with saturated salt solutions in ovens at the specified temperatures and for the specified times in Table 4. The Form B is analyzed before and after the accelerated stability study and is collected on a Bruker D8 Advance XRPD, equipped with a CuKα source (wavelength = 1.54056 Å) and a Linxeye detector, and operating at 40 kV and 40 mA, with a 0.2 mm divergence slit. Each sample is scanned from 4° to 30° 2θ in 0.02° steps at a rate of 0.2 seconds per step. Assay and impurities relative to the starting material are assessed using an Agilent 1260 HPLC System with Diode Array Detector. Samples are prepared at appropriate concentrations in 50/50 0.1%TFA in water/0.1%TFA in ACN and evaluated using the following HPLC conditions: Column Zorbax Bonus-RP, 75 × 4.6 mm i.d., 3.5 micron, mobile phase A is 0.1% TFA in water, mobile phase B is 0.1% TFA in ACN, gradient is 95% A at time 0, 23% A at time 9.5-12.1 minutes, 5% A at time 13-16 minutes, 95% A at time 16.1-20 minutes with a flow rate of 1.5 mL/min, a column temperature of 30° C., UV detection wavelength of 210 nm, and injection volume of 3 µL.

[4] = equilibrium solubility in aqueous media and simulated fluids
Protocol: Solubility studies were completed on the crystal form of selpercatinib described herein. Aqueous media covering the physiological pH range and three simulated fluids were used in these studies. A sufficient quantity of solid compound to saturate the volume of solvent is weighed into a vessel with approximately 1 mL of the specified solvent. […] After equilibration, samples are transferred to centrifuge filters (Durapore PVDF, 0.22 µm pore size) and centrifuged for 3 min at 10,000 rpm, while maintaining 37° C. A 100 µL aliquot is then withdrawn from each sample and diluted with 900 µL of 50:50 acetonitrile:water. The pH of the filtrate is recorded using calibrated scientific pH equipment. The solution concentration of the compound is determined by HPLC using an Agilent Zorbax Bonus-RP 4.6 × 75 mm, 3.5 µm column under the following conditions:; temperature is 30° C.; injection volume is 4 µL; ultraviolet detection at 238 nm; flow rate is 1.5 mL/min; autosampler temperature is 25° C.; mobile phase A is 0.1% trifluoroacetic acid in water; and mobile phase B is 0.1% trifluoroacetic acid in acetonitrile. The HPLC gradient is as follows: 0 min -95% A, 5% B; 9.5 min - 23% A, 77% B; 12.1 min - 23% A, 77% B; 13 min - 5% A, 95% B; 16 min - 5% A, 95% B; 16.1 min - 95% A, 5% B; 20 min - 95% A, 5% B. The table below (Table 3) details the equilibrium solubility data and equilibrium pH, reported as a mean of duplicate sample preparations. The solid form of the residual solid from the centrifuge sample is verified by XRPD, as noted in Table 5.

SMILES: COc1ccc(CN2C3CC2CN(c2ccc(-c4cc(OCC(C)(C)O)cn5ncc(C#N)c45)cn2)C3)cn1 [Form A, 6-(2-hydroxy-2-methylpropoxy)-4-(6-(6-((6-methoxypyridin-3-yl)methyl)-3,6-diazabicyclo[3.1.1]heptan-3-yl)pyridin-3-yl)pyrazolo[1,5-a]pyridine-3-carbonitrile]
- hygroscopicity [1]: slightly more hygroscopic than Form B
- solubility in many organic solvents, including MEK, acetone, and many alcohol based solvents ([2]; 25° C.): poor
- solubility ([2]; dichloromethane, dimethylsulfoxide and THF, organic solvent or mixture, 25° C., called moderate solubility, read-out: solubility in dichloromethane (DCM), dimethylsulfoxide (DMSO) and THF): 3000 to 30000 µg/mL (≈ 5710 to 57100 µM)

SMILES: COc1ccc(CN2C3CC2CN(c2ccc(-c4cc(OCC(C)(C)O)cn5ncc(C#N)c45)cn2)C3)cn1 [Form B, 6-(2-hydroxy-2-methylpropoxy)-4-(6-(6-((6-methoxypyridin-3-yl)methyl)-3,6-diazabicyclo[3.1.1]heptan-3-yl)pyridin-3-yl)pyrazolo[1,5-a]pyridine-3-carbonitrile]
- Assay (%) in comparison to the unstressed (time 0) sample ([3]; 7 days, 40 °C, 11% RH): 99.2%
- Crystal Form (XRPD vs unstressed time 0 sample) ([3]; 7 days, 40 °C, 11% RH): NC
- Impurities (%) ([3]; 7 days, 40 °C, 11% RH): 0.10%
- Assay (%) in comparison to the unstressed (time 0) sample ([3]; 7 days, 40 °C, 75% RH): 99.4%
- Crystal Form (XRPD vs unstressed time 0 sample) ([3]; 7 days, 40 °C, 75% RH): NC
- Impurities (%) ([3]; 7 days, 40 °C, 75% RH): 0.11%
- Assay (%) in comparison to the unstressed (time 0) sample ([3]; 7 days, 50 °C, 30% RH): 99.4%
- Crystal Form (XRPD vs unstressed time 0 sample) ([3]; 7 days, 50 °C, 30% RH): NC
- Impurities (%) ([3]; 7 days, 50 °C, 30% RH): 0.09%
- Assay (%) in comparison to the unstressed (time 0) sample ([3]; 7 days, 50 °C, 50% RH): 99.2%
- Crystal Form (XRPD vs unstressed time 0 sample) ([3]; 7 days, 50 °C, 50% RH): NC
- Impurities (%) ([3]; 7 days, 50 °C, 50% RH): 0.10%
- Assay (%) in comparison to the unstressed (time 0) sample ([3]; 7 days, 70 °C, 11% RH): 100.7%
- Crystal Form (XRPD vs unstressed time 0 sample) ([3]; 7 days, 70 °C, 11% RH): NC
- Impurities (%) ([3]; 7 days, 70 °C, 11% RH): 0.09%
- Assay (%) in comparison to the unstressed (time 0) sample ([3]; 7 days, 70 °C, 75% RH): 100.3%
- Crystal Form (XRPD vs unstressed time 0 sample) ([3]; 7 days, 70 °C, 75% RH): NC
- Impurities (%) ([3]; 7 days, 70 °C, 75% RH): 0.10%
- Assay (%) in comparison to the unstressed (time 0) sample ([3]; 14 days, 40 °C, 11% RH): 99.9%
- Crystal Form (XRPD vs unstressed time 0 sample) ([3]; 14 days, 40 °C, 11% RH): NC
- Impurities (%) ([3]; 14 days, 40 °C, 11% RH): 0.09%
- Assay (%) in comparison to the unstressed (time 0) sample ([3]; 14 days, 40 °C, 75% RH): 99.9%
- Crystal Form (XRPD vs unstressed time 0 sample) ([3]; 14 days, 40 °C, 75% RH): NC
- Impurities (%) ([3]; 14 days, 40 °C, 75% RH): 0.10%
- Assay (%) in comparison to the unstressed (time 0) sample ([3]; 14 days, 50 °C, 30% RH): 100.5%
- Crystal Form (XRPD vs unstressed time 0 sample) ([3]; 14 days, 50 °C, 30% RH): NC
- Impurities (%) ([3]; 14 days, 50 °C, 30% RH): 0.09%
- Assay (%) in comparison to the unstressed (time 0) sample ([3]; 14 days, 50 °C, 50% RH): 100.4%
- Crystal Form (XRPD vs unstressed time 0 sample) ([3]; 14 days, 50 °C, 50% RH): NC
- Impurities (%) ([3]; 14 days, 50 °C, 50% RH): 0.11%
- Assay (%) in comparison to the unstressed (time 0) sample ([3]; 14 days, 70 °C, 11% RH): 99.3%
- Crystal Form (XRPD vs unstressed time 0 sample) ([3]; 14 days, 70 °C, 11% RH): NC
- Impurities (%) ([3]; 14 days, 70 °C, 11% RH): 0.10%
- Assay (%) in comparison to the unstressed (time 0) sample ([3]; 14 days, 70 °C, 75% RH): 100.9%
- Crystal Form (XRPD vs unstressed time 0 sample) ([3]; 14 days, 70 °C, 75% RH): NC
- Impurities (%) ([3]; 14 days, 70 °C, 75% RH): 0.11%
- stability under the testing conditions ([3]; accelerated stability study, conditions of Table 4): chemically and physically stable
- Impurities (%) ([3]; time point 0 days, unstressed sample): 0.09%
- solubility in anisole [2]: almost no solubility
- Equilibrium pH ([4]; 0.01N HCl, 37° C., 24-hour equilibration): 3.634
- Equilibrium pH ([4]; 0.01 N NaOH, 37° C., 24-hour equilibration): 9.985
- Equilibrium pH ([4]; 0.1N HCl, 21.5° C. (ambient)): 1.297
- Equilibrium pH ([4]; FaSSIF, 37° C., 24-hour equilibration): 6.445
- Equilibrium pH ([4]; FeSSIF, 37° C., 24-hour equilibration): 4.928
- Equilibrium pH ([4]; SGF (simulated gastric fluid), 37° C., 24-hour equilibration): 2.644
- Equilibrium pH ([4]; Water, 37° C., 24-hour equilibration): 7.146
- solubility at 24 h ([4]; aqueous buffer, thermodynamic from solid, 0.01 N NaOH, 37° C., 24-hour equilibration): 1.1 µg/mL (≈ 2.09 µM)
- solubility ([4]; aqueous media, 37 °C, thermodynamic from solid, indicated by the aqueous solubility results, read-out: intrinsic solubility): ~1 µg/mL (≈ 1.9 µM)
- solubility at 24 h ([4]; citrate/phosphate buffer pH 4.0, aqueous buffer, thermodynamic from solid, pH 4.0 Citrate/Phosphate, 37° C., 24-hour equilibration): 712 µg/mL (≈ 1350 µM)
- solubility at 24 h ([4]; pH 1.297, simulated gastric fluid, thermodynamic from solid, 0.1N HCl, measured at 21.5° C. (ambient), 24-hour equilibration): ≥ 10000 µg/mL
- solubility at 24 h ([4]; pH 2.644, thermodynamic from solid, SGF (simulated gastric fluid), 37° C., 24-hour equilibration, retained solids non-crystalline by XRPD): 1440 µg/mL (≈ 2740 µM)
- solubility at 24 h ([4]; pH 3.634, simulated gastric fluid, thermodynamic from solid, 0.01N HCl, 37° C., 24-hour equilibration): 4770 µg/mL (≈ 9080 µM)
- Equilibrium pH ([4]; pH 4.0 Citrate/Phosphate, 37° C., 24-hour equilibration): 4.134
- Equilibrium pH ([4]; pH 4.5 Acetate (USP), 37° C., 24-hour equilibration): 4.496
- solubility at 24 h ([4]; pH 4.5 acetate buffer (USP), aqueous buffer, thermodynamic from solid, pH 4.5 Acetate (USP), 37° C., 24-hour equilibration): 169 µg/mL (≈ 322 µM)
- Equilibrium pH ([4]; pH 6.0 Phosphate (USP), 37° C., 24-hour equilibration): 6.027
- solubility at 24 h ([4]; pH 6.0 phosphate buffer (USP), aqueous buffer, thermodynamic from solid, pH 6.0 Phosphate (USP), 37° C., 24-hour equilibration): 8.6 µg/mL (≈ 16.4 µM)
- solubility at 24 h ([4]; pH 7.146, thermodynamic from solid, Water, 37° C., 24-hour equilibration): 3.6 µg/mL (≈ 6.85 µM)
- Equilibrium pH ([4]; pH 7.5 Phosphate (USP), 37° C., 24-hour equilibration): 7.526
- solubility at 24 h ([4]; pH 7.5 phosphate buffer (USP), aqueous buffer, thermodynamic from solid, pH 7.5 Phosphate (USP), 37° C., 24-hour equilibration): 2.2 µg/mL (≈ 4.19 µM)
- solubility at 24 h ([4]; thermodynamic from solid, FaSSIF (fasted-state simulated intestinal fluid, pH 6.5), 37° C., 24-hour equilibration): 9.6 µg/mL (≈ 18.3 µM)
- solubility at 24 h ([4]; thermodynamic from solid, FeSSIF (fed-state simulated intestinal fluid, pH 5.0), 37° C., 24-hour equilibration): 228 µg/mL (≈ 433 µM)
